From patent US20230382925A1, “MODULATORS OF CYSTIC FIBROSIS TRANSMEMBRANE CONDUCTANCE REGULATOR” (VERTEX PHARMACEUTICALS INCORPORATED, priority 2020, published 2023)
pEC50: −log10 of the molar value. Like-named read-outs stand apart in the source and are kept apart here.

Molecular target: CFTR (Homo sapiens, UniProt P13569)
Experiment: Membrane Potential Dye, Enteroid Assay B
Assay type: cell-based
Outline: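 Human intestinal enteroid cells exposed to compound 18-24 h at 37 °C, then loaded with methyl oxonol membrane-potential dye plus CaCC blockers. Chloride transport triggered in chloride-free buffer with 10 μM forskolin, 100 μM IBMX, 300 nM Compound III; fluorescence read 15 min, expressed as % of triple-corrector/potentiator combination control.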

[1] = Table 10, read-out: Ent. B EC50

Chain of CFTR (P13569 with tags, fused parts or gaps DEL508-508): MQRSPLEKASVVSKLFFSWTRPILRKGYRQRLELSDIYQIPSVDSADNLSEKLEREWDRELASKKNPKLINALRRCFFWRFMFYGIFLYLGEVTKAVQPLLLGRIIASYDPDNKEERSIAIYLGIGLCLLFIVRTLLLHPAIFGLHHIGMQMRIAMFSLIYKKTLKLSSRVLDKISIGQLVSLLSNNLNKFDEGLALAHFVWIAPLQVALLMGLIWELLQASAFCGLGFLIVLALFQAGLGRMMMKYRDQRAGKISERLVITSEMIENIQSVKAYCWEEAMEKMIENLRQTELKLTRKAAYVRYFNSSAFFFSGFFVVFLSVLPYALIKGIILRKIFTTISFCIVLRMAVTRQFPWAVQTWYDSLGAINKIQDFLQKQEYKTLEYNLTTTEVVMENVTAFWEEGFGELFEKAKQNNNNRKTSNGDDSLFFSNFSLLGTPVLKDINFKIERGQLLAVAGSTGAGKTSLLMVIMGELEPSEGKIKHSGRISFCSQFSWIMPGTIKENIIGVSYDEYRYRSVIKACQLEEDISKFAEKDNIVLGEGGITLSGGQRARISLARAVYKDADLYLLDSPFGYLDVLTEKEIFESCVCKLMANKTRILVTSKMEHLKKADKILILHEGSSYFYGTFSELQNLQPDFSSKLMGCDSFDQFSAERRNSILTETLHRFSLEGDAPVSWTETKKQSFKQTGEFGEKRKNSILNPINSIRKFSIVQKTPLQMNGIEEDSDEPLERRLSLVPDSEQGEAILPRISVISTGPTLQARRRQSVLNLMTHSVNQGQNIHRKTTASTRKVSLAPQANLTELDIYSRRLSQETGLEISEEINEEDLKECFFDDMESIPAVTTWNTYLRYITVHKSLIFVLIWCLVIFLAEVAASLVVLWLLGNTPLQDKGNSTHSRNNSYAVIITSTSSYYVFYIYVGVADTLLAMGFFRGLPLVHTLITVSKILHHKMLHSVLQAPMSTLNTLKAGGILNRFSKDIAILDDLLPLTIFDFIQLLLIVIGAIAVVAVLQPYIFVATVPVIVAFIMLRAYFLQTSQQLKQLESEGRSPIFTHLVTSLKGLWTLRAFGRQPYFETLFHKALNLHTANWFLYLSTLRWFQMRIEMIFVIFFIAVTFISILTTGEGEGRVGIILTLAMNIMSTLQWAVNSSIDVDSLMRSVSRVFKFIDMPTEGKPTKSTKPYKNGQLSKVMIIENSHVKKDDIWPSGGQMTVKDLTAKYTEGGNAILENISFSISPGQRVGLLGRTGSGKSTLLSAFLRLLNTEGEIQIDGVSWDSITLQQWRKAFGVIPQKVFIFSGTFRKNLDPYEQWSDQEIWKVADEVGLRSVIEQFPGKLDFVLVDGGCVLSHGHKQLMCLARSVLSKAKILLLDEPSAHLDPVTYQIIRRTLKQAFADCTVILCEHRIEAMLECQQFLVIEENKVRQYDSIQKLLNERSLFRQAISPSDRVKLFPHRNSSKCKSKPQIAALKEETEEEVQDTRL

Row | Ent. B Max Activity (%) (Table 9) | pEC50 (Table 9, read-out: Ent. B EC50) | Ent. B Max Activity (%) (Table 10) | pEC50 [1] | SMILES | further results
1 | +++ (+++ is >60%) | > 6.00 |  |  | Cc1cccc(C)c1-c1cc2nc(n1)NS(=O)(=O)c1cccc(c1)C(=O)N(C1CC(N[C@H]3CC[C@H](O)CC3)C1)[C@H](CC(C)C)CO2 (stereo in doubt) [Compound 372] | 
2 | +++ (+++ is >60%) | > 6.00 |  |  | COC(=O)NC1CC2(C1)CC(N1C(=O)c3cccc(c3)S(=O)(=O)Nc3nc(cc(-c4c(C)cccc4C)n3)OC[C@H]1CC(C)(C)C(F)(F)F)C2 (single isomer, unassigned) [Compound 76] | 
3 | +++ (+++ is >60%) | > 6.00 |  |  | COC1CN([C@H]2C[C@@H](N3C(=O)c4cccc(c4)S(=O)(=O)Nc4nc(cc(-c5c(C)cccc5C)n4)OC[C@H]3CC(C)C)C2)C1 [Compound 65, (11R)-6-(2,6-dimethylphenyl)-11-isobutyl-12-[3-(3-methoxyazetidin-1-yl)cyclobutyl]-2,2-dioxo-9-oxa-2λ^6-thia-3,5,12,19-tetrazatricyclo[12.3.1.14,8]nonadeca-1(18),4(19),5,7,14,16-hexaen-13-one] | 
4 |  |  |  |  | COC1CC(N2C(=O)c3cccc(c3)S(=O)(=O)Nc3nc(cc(-c4c(C)cccc4C)n3)OC[C@H]2CC2(C(F)(F)F)CC2)C1 (stereo in doubt) [Compound 466] | Ent. B Max Activity (%): +++ (+++ is >60%); pEC50 (read-out: Ent. B EC50): > 6.00
5 | +++ (+++ is >60%) | > 6.00 |  |  | Cc1cccc(C)c1-c1cc2nc(n1)NS(=O)(=O)c1cccc(c1)C(=O)N(C1CC(NC(=O)C(C)C)C1)[C@H](CC(C)(C)C)CO2 (stereo in doubt) [Compound 445] | 
6 | +++ (+++ is >60%) | > 6.00 |  |  | Cc1cccc(C)c1-c1cc2nc(n1)NS(=O)(=O)c1cccc(c1)C(=O)N(C1CC(OC(F)(F)F)C1)[C@H](CC(C)C)CO2 (stereo in doubt) [Compound 214] | 
7 |  |  |  |  | Cc1cccc(C)c1-c1cc2nc(n1)NS(=O)(=O)c1cccc(c1)C(=O)N(C1CC3(C1)CN(C(=O)OC(C)C)C3)[C@H](CC(C)C)CO2 [Compound 102, Isopropyl 6-[(11R)-6-(2,6-dimethylphenyl)-11-isobutyl-2,2,13-trioxo-9-oxa-2λ^6-thia-3,5,12,19-tetrazatricyclo[12.3.1.14,8]nonadeca-1(18),4(19),5,7,14,16-hexaen-12-yl]-2-azaspiro[3.3]heptane-2-carboxylate] | Ent. B Max Activity (%): +++ (+++ is >60%); pEC50 (read-out: Ent. B EC50): > 6.00
8 |  |  | +++ (+++ is >60%) | > 6.00 | [H][C@]1(N2C(=O)c3cccc(c3)S(=O)(=O)Nc3nc(cc(-c4c(C)cccc4C)n3)OC[C@H]2CC(C)C)C[C@@]2(C[C@H](NC(=O)OC(C)C)C2)C1 (single isomer, unassigned) [Compound 123] | 
9 | +++ (+++ is >60%) |  |  |  | COCCN1CCC2(CC1)CC(N1C(=O)c3cccc(n3)S(=O)(=O)Nc3cc(cc(-c4c(C)cccc4C)n3)OC[C@H]1CC(C)C)C2 [Compound 422] | 
10 |  |  | ++ (++ is 30-60%) | > 6.00 | Cc1cccc(C)c1-c1cc2nc(n1)NS(=O)(=O)c1cccc(c1)C(=O)N(C1CC(C)(OC(F)(F)F)C1)[C@H](CC(C)C)CO2 (stereo partly drawn) [Compound 49, (11R)-6-(2,6-dimethylphenyl)-11-isobutyl-12-[3-methyl-3-(trifluoromethoxy)cyclobutyl]-2,2-dioxo-9-oxa-2λ^6-thia-3,5,12,19-tetrazatricyclo[12.3.1.14,8]nonadeca-1(18),4(19),5,7,14,16-hexaen-13-one] | 
11 |  |  | + (+ is <300%) |  | COCCN1CCC(n2cc(N3C(=O)c4cccc(c4)S(=O)(=O)Nc4nc(cc(-c5c(C)cccc5C)n4)OC[C@H]3CC(C)(C)C)cn2)CC1 [Compound 224] | 
12 | +++ (+++ is >60%) | > 6.00 |  |  | Cc1cccc(C)c1-c1cc2nc(n1)NS(=O)(=O)c1cccc(c1)C(=O)N(C1CC(N3CCN(C)C(=O)C3)C1)[C@H](CC(C)C)CO2 (stereo partly drawn) [Compound 384] | 
13 |  |  | ++ (++ is 30-60%) | > 6.00 | Cc1cccc(C)c1-c1cc2nc(n1)NS(=O)(=O)c1cccc(c1)C(=O)N(C1CC3(CCNC(=O)C3)C1)[C@H](CC(C)C)CO2 (stereo partly drawn) [Compound 201] | 
14 | +++ (+++ is >60%) | > 6.00 |  |  | Cc1cccc(C)c1-c1cc2nc(n1)NS(=O)(=O)c1cccc(c1)C(=O)N(C1CC(N(C)C3CCC3)C1)[C@H](CC(C)C)CO2 (stereo partly drawn) [Compound 376] | 
15 |  |  |  |  | CC(C)C[C@@H]1COc2cc(C3CCCCC3(C)C)nc(n2)NS(=O)(=O)c2cccc(c2)C(=O)N1C1CC2(CCN(C)CC2)C1 (stereo partly drawn) [Compound 394] | Ent. B Max Activity (%): +++ (+++ is >60%); pEC50 (read-out: Ent. B EC50): 5.52 to 6.00
16 |  |  | +++ (+++ is >60%) | > 6.00 | CCC(O)(CC)[C@H]1CC2(C[C@H](N3C(=O)c4cccc(c4)S(=O)(=O)Nc4nc(cc(-c5c(C)cccc5C)n4)OC[C@H]3CC(C)(C)C)C2)C1 (stereo partly drawn) [Compound 408] | 
17 |  |  | ++ (++ is 30-60%) | > 6.00 | Cc1cccc(C)c1-c1cc2nc(n1)NS(=O)(=O)c1cccc(c1)C(=O)N([C@H]1C[C@@H](OC(F)(F)C(F)(F)F)C1)[C@H](CC(C)C)CO2 [Compound 210] | 
18 |  |  | +++ (+++ is >60%) | > 6.00 | Cc1cccc(C)c1-c1cc2nc(n1)NS(=O)(=O)c1cccc(c1)C(=O)N(C1CC3(CC(C(N)=O)C3)C1)[C@H](CC(C)(C)C)CO2 (stereo partly drawn) [Compound 233] | 
19 |  |  | + (+ is <300%) |  | Cc1cccc(C)c1-c1cc2nc(n1)NS(=O)(=O)c1cccc(c1)C(=O)N([C@H]1C[C@H](OC(F)(F)C(F)(F)F)C1)[C@H](CC(C)C)CO2 [Compound 211] | 
20 |  |  | +++ (+++ is >60%) | > 6.00 | Cc1cccc(C)c1-c1cc2nc(n1)NS(=O)(=O)c1cccc(c1)C(=O)N([C@H]1C[C@@H](OC(=O)Nc3ccccc3)C1)[C@H](CC(C)C)CO2 (stereo in doubt) [Compound 360] | 

Row | SMILES | Ent. B Max Activity (%) (Table 9) | pEC50 (Table 9, read-out: Ent. B EC50) | Ent. B Max Activity (%) (Table 10) | pEC50 [1] | further results
21 | COC(=O)N1CCC2(CC1)CC(N1C(=O)c3cccc(c3)S(=O)(=O)Nc3nc(cc(-c4c(C)cccc4C)n3)OC[C@H]1CC(C)(C)C(F)(F)F)C2 [Compound 191, Methyl 2-[(11R)-6-(2,6-dimethylphenyl)-2,2,13-trioxo-11-(3,3,3-trifluoro-2,2-dimethylpropyl)-9-oxa-2λ^6-thia-3,5,12,19-tetraazatricyclo[12.3.1.14,8]nonadeca-1(17),4(19),5,7,14(18),15-hexaen-12-yl]-7-azaspiro[3.5]nonane-7-carboxylate] | +++ (+++ is >60%) | > 6.00 |  |  | 
22 | Cc1cccc(C)c1-c1cc2nc(n1)NS(=O)(=O)c1cccc(c1)C(=O)N([C@H]1C[C@@H](CNC(=O)OC(C)C)C1)[C@H](CC(C)C)CO2 (single isomer, unassigned) [Compound 108] | +++ (+++ is >60%) | > 6.00 |  |  | 
23 | CCC(=O)N1C[C@H]2C[C@@H](C1)[C@H]2N1C(=O)c2cccc(c2)S(=O)(=O)Nc2nc(cc(-c3c(C)cccc3C)n2)OC[C@H]1CC(C)(C)C [Compound 231] |  |  | ++ (++ is 30-60%) |  | pEC50 (read-out: Ent. B EC50, Table 10): > 6.00
24 | Cc1cccc(C)c1-c1cc2nc(n1)NS(=O)(=O)c1cccc(c1)C(=O)N(C1CC(OC(=O)N(C)C)C1)[C@H](CC(C)C)CO2 (stereo partly drawn) [Compound 48, [3-[(11R)-6-(2,6-dimethylphenyl)-11-isobutyl-2,2,13-trioxo-9-oxa-2λ^6-thia-3,5,12,19-tetrazatricyclo[12.3.1.14,8]nonadeca-1(18),4(19),5,7,14,16-hexaen-12-yl]cyclobutyl] N,N-dimethylcarbamate] |  |  | ++ (++ is 30-60%) | > 6.00 | 
